In PMC5078011, “The oleocanthal-based homovanillyl sinapate as a novel c-Met inhibitor” (Oncotarget, 2016):

Target: c-Met (M1250T) (Homo sapiens, UniProt P08581, M1250T)
Experiment: Z'-LYTE Tyr6 peptide kinase assay, recombinant M1250T c-Met
Assay type: biochemical
Settings: read-out: (-)-Oleocanthal^a / IC50 (μM) ± SEM

Sequence of c-Met (M1250T) (P08581 956-1390 M1250T limits assumed): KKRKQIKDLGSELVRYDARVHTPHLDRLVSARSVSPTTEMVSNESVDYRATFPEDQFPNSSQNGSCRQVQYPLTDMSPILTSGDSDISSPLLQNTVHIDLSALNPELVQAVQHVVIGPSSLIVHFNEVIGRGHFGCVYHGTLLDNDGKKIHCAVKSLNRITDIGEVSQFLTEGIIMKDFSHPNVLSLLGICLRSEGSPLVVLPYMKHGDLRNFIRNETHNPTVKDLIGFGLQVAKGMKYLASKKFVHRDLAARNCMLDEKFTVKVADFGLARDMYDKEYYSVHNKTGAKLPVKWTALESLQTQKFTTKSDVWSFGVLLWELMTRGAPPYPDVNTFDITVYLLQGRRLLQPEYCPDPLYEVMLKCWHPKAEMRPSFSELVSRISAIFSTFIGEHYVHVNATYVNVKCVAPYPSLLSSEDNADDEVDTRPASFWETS

Structure (SMILES): C/C=C(/C=O)[C@@H](CC=O)CC(=O)OCCc1ccc(O)cc1 [S (−)-oleocanthal]
- IC50: 3.9 µM
